The values that follow come from patent US20240197681A1, “METHODS AND COMPOSITIONS RELATING TO PS[…] SEROTONIN RECEPTOR MODULATORS” (Terran Biosciences Inc., priority 2021, published 2024).

“Also recorded” adds a separate entry of the source. Read-outs that look alike come from different tables or passages of the source. Where only a bound is given, the exact number is not on record here.

Assay [1] deals with hippocampal area CA1 in anesthetized mice. Kind of assay: In vivo electrophysiology: local field potentials in hippocampal CA1. The following applies: for effect of ketanserin pretreatment on psilocybin-induced reduction in low frequency (delta) LFP power: ketanserin 2 mg/kg i.p. 60 minutes before psilocybin 10 mg/kg i.p., 15-25 minutes following psilocybin injection.
In assay [2] the test system is C57Bl/6J mice. Kind of assay: Female urine sniff test (FUST) after chronic multimodal stress (CMMS). It counts as in vivo. The following applies: stress-susceptible male mice after 10-14 days CMMS; single drug (psilocybin 1 mg/kg i.p. or ketanserin 2 mg/kg i.p.) plus vehicle injection; 24-48 hours after injection.
The test system of assay [3] is C57Bl/6J mice. Kind of assay: Sucrose preference test (SPT) after chronic multimodal stress (CMMS). Particulars: stress-susceptible male mice after 10-14 days CMMS; single drug (psilocybin 1 mg/kg i.p. or ketanserin 2 mg/kg i.p.) plus vehicle injection; 24-48 hours after injection. The class given is in vivo.
The test system of another assay is TA-CA1 synapses. Kind of assay: In vitro electrophysiology: AMPA:NMDA ratios of TA-CA1 fEPSPs in hippocampal slices from treated mice. It counts as in vivo. The following applies: ketanserin 2 mg/kg 60 minutes prior to psilocybin 1 mg/kg; CMMS mice. Here is the method:
Standard methods were used to prepare […] hippocampal slices. Briefly, mice were euthanized via exposure to isoflurane followed by decapitation. Brains were excised and the hippocampus was quickly dissected from the brain and sectioned on a Leica VT1200 series vibratome in ice-cold artificial cerebrospinal fluid (ACSF) bubbled with 95% O2/5% CO2. The ACSF contained: 124 mM NaCl, 3 mM KCl, 1.25 mM NaH2PO4, 1.5 mM MgSO4, 2.5 mM CaCl2, 26 mM NaHCO3, and 10 mM glucose. Slices were allowed to recover for a minimum of 60 minutes at room temperature in ACSF in a humidified interface chamber before recording.
Use of extracellular recording, rather than whole-cell recording, was chosen for quantification of AMPA:NMDA ratios because of the complications of stress-induced changes in dendritic structure and their electrotonic influence on recordings of distal TA-CAI synapses. For quantification of AMPA:NMDA ratios, ACSF was prepared as stated, but without MgSO4, to leave NMDA channels unblocked. […] Five fEPSPs were again collected at the same stimulation intensities recorded prior to DNQX. […]
AMPA:NMDA ratios of the TA-CAI fEPSPs were quantified as described previously (A. J. Kallarackal et al., 2013 J. Neuroscience. 33, 15669-15764) in order to provide a measure of synaptic strength across slices from different mice. […]

The subject of assay [4] is Healthy Volunteers. Kind of assay: Resting-state fMRI: global brain connectivity (GBC) and functional connectivity (FC). The class given is in vivo, humans. Particulars: ketanserin 60 minutes before LSD; for LSD induced neural changes at 300 minutes in the presence of ketanserin: absence of psychotomimetic effects. The text has this: The used dataset was acquired in the course of a registered clinical trial (ClinicalTrials.gov Identifier: NCT02451072) entitled: The Role of 5-HT2A Receptor in the Perception of Self and Personal Meaning in Healthy Volunteers. Participants, study design, neuroimaging data acquisition, preprocessing and global brain connectivity calculation are detailed in Preller et al. (eLife. 2018 Oct. 25; 7:e35082. Changes in global and thalamic brain connectivity in LSD-induced altered states of consciousness are attributable to the 5-HT2A receptor, PMID: 30355445). The relevant methodological sections pertinent to the current analysis are summarized below.
24 subjects were included in the dataset (n=19 males; mean age=25.0 years, standard deviation=3.6 years, range=20-34 years). All included subjects were healthy, as confirmed by medical history, physical examination, blood analysis, electrocardiogra Mini-International Neuropsychiatric Interview (MINI-SCID) [Sheehan et al., 1998], the DSM-IV self-rating questionnaire for Axis-II personality disorders (SCIS-II) [Fydrich et al., 1997], and the Hopkins Symptom Checklist (SCL-90R) [Franke, 1995]. Subjects were required to abstain from prescription or illicit drugs, alcohol, smoking and caffeine.
The study was designed as a fully double-blind, randomized, within-subject cross-over study. During a session, subjects were pretreated with either a placebo or the 5-HT2A receptor antagonist Ketanserin 60 minutes before being treated with either a placebo or LSD. Thus, each subject participated in 3 sessions in which they underwent each of the following pretreatment · treatment conditions in a randomized, balanced order: • a) Placebo+placebo • b) Placebo+LSD • c) Ketanserin+LSD Two resting-state scans were performed, one 75 and the other 300 minutes after treatment. To assess participants' experience, a retrospective self-report questionnaire (5D-ASC, [Dittrich, 1998]) was administered 720 minutes after treatment, and a shorter version of the 5D-ASC 180, 250 and 360 minutes after treatment. […]

The subject of assay [5] is C57Bl/6J mice. Kind of assay: Locomotion in open field arena. The following applies: ketanserin 2 mg/kg 60 minutes prior to psilocybin 5 mg/kg.
The target in the next assay is T1, 5-HT2A receptor (Mus musculus, UniProt P35363).
T1 construct: from tissue; host or cells: live mice (whole animal, brain receptors)
T1 sequence (P35363 whole entry): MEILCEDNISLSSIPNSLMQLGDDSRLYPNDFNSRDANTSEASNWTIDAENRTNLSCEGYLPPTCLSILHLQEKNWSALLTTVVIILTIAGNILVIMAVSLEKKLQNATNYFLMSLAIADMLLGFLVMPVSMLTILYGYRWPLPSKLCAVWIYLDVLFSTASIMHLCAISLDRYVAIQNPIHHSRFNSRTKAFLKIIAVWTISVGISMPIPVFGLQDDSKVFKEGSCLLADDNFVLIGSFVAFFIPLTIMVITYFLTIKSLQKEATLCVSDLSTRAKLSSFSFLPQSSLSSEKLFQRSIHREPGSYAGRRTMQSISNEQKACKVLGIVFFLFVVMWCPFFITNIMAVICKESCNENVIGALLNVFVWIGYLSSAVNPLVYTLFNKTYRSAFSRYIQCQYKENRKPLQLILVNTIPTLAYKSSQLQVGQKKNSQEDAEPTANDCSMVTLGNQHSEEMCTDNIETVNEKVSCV
Kind of assay: Head twitch response (HTR). The following applies: ketanserin 2 mg/kg 60 minutes prior to psilocybin 1 mg/kg, 15 minutes following injection. It counts as in vivo, mice.

The subject of assay [6] is Healthy Volunteers. Particulars: cited from earlier work; for subjective (psychotomimetic) LSD effects versus placebo at 360 minutes: 5D-ASC short version.

As to `CN(C)CCc1c[nH]c2cccc(OP(=O)(O)O)c12` [psilocybin], the “time of peak effect on low frequency LFP activity following psilocybin injection” value in assay [1] (psilocybin 10 mg/kg) fell in the range of 15 to 25 min. In addition, in assay [1] (psilocybin 10 mg/kg, i.p.), the “duration of decrease of delta band power” value is above 60 min and the “time to decrease of delta band power” value is listed as at most 15 min.
In the case of `O=C(c1ccc(F)cc1)C1CCN(CCn2c(=O)[nH]c3ccccc3c2=O)CC1` [ketanserin], the “female urine preference compared to values after CMMS” value with C57Bl/6J mice [2] is recorded as “nor ketanserin alone (p=0.072) had a significant effect on female urine preference; also recorded: no significant effect”. Moreover, the “sucrose preference (SP) compared to values after CMMS” value with C57Bl/6J mice [3] is “nor ketanserin alone (p=0.87; n=6) had a significant effect on SP; also recorded: no significant effect”. Further, the “effect of ketanserin pretreatment on the ability of psilocybin to restore AMPA:NMDA ratios” value in the assay on TA-CA1 synapses is on record as “did not impair”. Moreover, the “effect of ketanserin pretreatment on LSD-induced neural changes at 75 minutes” value with Healthy Volunteers [4] is reported as “many of the immediate neural changes induced by LSD at 75 minutes”. In the assay on Healthy Volunteers [4], the “LSD induced neural changes at 300 minutes in the presence of ketanserin” value is “did not block the neural changes induced by LSD”. The “effect of ketanserin pretreatment on psilocybin-induced reduction in low frequency (delta) LFP power” value is on record as “inhibited; also recorded: significantly attenuated” in assay [1] and “greatly attenuated; also recorded: block” in assay [1] (listed as Ketanserin). The “effect of ketanserin pretreatment on locomotion” value in the assay on C57Bl/6J mice [5] is “enhances hypolocomotive effects of psilocybin; also recorded: induced hypo-locomotion”. Also, the “effect of ketanserin pretreatment on psilocybin-induced head-twitching (5-HT2A receptor activation)” value at 5-HT2A receptor is “prevents head-twitching; also recorded: sufficiently blocked 5-HT2A receptors; also recorded: sufficiently attenuated the activation of 5-HT2ARs”; on 5-HT2A receptor (listed as Ketanserin), “block 5-HT2AR-dependent head twitching”. Also, the “effect of ketanserin pretreatment on psychotomimetic (behavioral) effects of LSD” value in the assay with Healthy Volunteers [6] (ketanserin 60 minutes before LSD, all timepoints) is “blocked all of the psychotomimetic effects of LSD; also recorded: fully blocked the behavioral effects of LSD”.
With `CCN(CC)C(=O)[C@@H]1C=C2c3cccc4[nH]cc(c34)C[C@H]2N(C)C1` [LSD, lysergic acid diethylamide], the “LSD induced neural changes at 300 minutes in the presence of ketanserin” value with Healthy Volunteers [4] is given as “reached near full effect within 300 minutes”. In addition, the “subjective (psychotomimetic) LSD effects versus placebo at 360 minutes” value with Healthy Volunteers [6] (FIG. 20 reprinted from Preller 2018) was “still intense and high above placebo”; in the assay on Healthy Volunteers [6] (FIG. 20 reprinted from Preller 2018, listed as Pla+LSD) it was “still significantly elevated from placebo”. In the assay with Healthy Volunteers [6] (180, 250 and 360 minutes after second drug administration, FIG. 20 reprinted from Preller 2018), the “self-reported altered states of consciousness (5D-ASC short version)” value is “substantial self-reported altered states of consciousness”.
